Consider two compounds from US5455222A, “1-substituted-5-thiomethylthiocyanato-1H-tetrazoles, compositions containing them and their use as antimicrobial and marine antifouling agents” (The Dow Chemical Company, priority 1994, dated 1995).

≈ marks a conversion by molar mass, not a printed value. Where only a bound is given, the exact number is not on record here.

One experiment has as its system Aspergillus niger (An). The experiment is described as follows: Minimum inhibitory concentration (MIC), yeast/fungi in malt yeast agar. The class given is cell-based, Aspergillus niger ATCC 16404. Particulars: 30° C., 72 hours for fungi. The procedure: (§1) The minimum inhibitory concentration (MIC) for the compounds listed in Table I is determined for 9 bacteria, using nutrient agar, and 7 yeast and fungi, using malt yeast agar. A one percent solution of the test compound is prepared in a mixture of acetone and water.
(§2) Malt yeast agar is prepared by adding 3 g yeast extract and 45 g malt agar per liter of deionized water. The specific agar is dispensed in 30 mL aliquots into 25×200 mm test tubes, capped and autoclaved for 15 minutes at 115° C.
(§3) The test tubes containing the agar are cooled in a water bath until the temperature of the agar is 48° C. Then, an appropriate amount of the one percent solution of the test compound is added (except in the controls where no compound is added) to the respective test tubes so that the final concentrations are 500, 250, 100, 50, 25, 10, 5, 2.5, 1.0 and zero parts per million of the test compound in the agar, thus having a known concentration of test compound dispersed therein. The contents of the test tubes are then transferred to respective petri plates. After drying for 24 hours, the petri plates containing nutrient agar are inoculated with bacteria and those containing malt yeast agar are inoculated with yeast and fungi.
(§4) The inoculation with the yeast and fungi is accomplished as follows. Cultures of yeast and fungi are incubated for seven days on malt yeast agar at 30° C. These cultures are used to prepare suspensions by the following procedure. A suspension of each organism is prepared by adding 10 mL of sterile saline and 10 microliters of octylphenoxy polyethoxy ethanol to the agar slant of yeast or fungi. The sterile saline/octylphenoxy polyethoxy ethanol solution is then agitated with a sterile swab to suspend the microorganism grown on the slant. Each resulting suspension is diluted into sterile saline (1 part suspension to 9 parts sterile saline). Aliquots of these dilutions are placed in individual wells of Steer's Replicator and petri plates inoculated as previously described. The petri plates are incubated at 30° C. and read after 48 hours for yeast and 72 hours for fungi.
(§5) Table II lists the bacteria, yeast and fungi used in the MIC test described above along with their respective American Type Culture Collection (ATCC) identification numbers.
(§6) In Tables III and IV, the MIC values of the compounds described in Table I as compared to the MIC of a standard commercial preservative (with 1-(3-chloroallyl)-3,5,7-triaza-1-azoniaadamantane chloride as the active agent and referred to in Tables III and IV as "STANDARD I") are set forth for the bacteria organisms and yeast/fungi organisms which are listed in Table II.
Broadly, the MIC is the smallest concentration in the dilution series that meets the test's criterion for growth inhibition. Take `Cc1cccc(-n2nnnc2SCSC#N)c1` [VI, 1-(3-Methylphenyl)-5-thiomethylthiocyanato-1H-tetrazole]: inhibition of growth (MIC) required 5 µg/mL (≈ 19 µM).
Turning to `N#CSCSc1nnnn1C1CCCCC1` [X, 1-(Cyclohexyl)-5-thiomethylthiocyanato-1H-tetrazole], the MIC stood at 5 µg/mL (≈ 19.6 µM).

The next experiment deals with Bacillus subtilis (Bs). Put plainly: Minimum inhibitory concentration (MIC), bacteria in nutrient agar. Type of experiment: cell-based, Bacillus subtilis ATCC 8473. As to conditions: nutrient agar pH 6.8, 30° C., 48 hours. The method, then:
as §1
(§7) Nutrient agar is prepared at pH 6.8, representing a neutral medium, and at pH 8.2, representing an alkaline medium. The nutrient agars are prepared by adding 23 g of nutrient agar to one liter of deionized water. In addition, the alkaline medium is prepared by adjusting a 0.04M solution of N-[tris-(hydroxymethyl)methyl]glycine buffered deionized water with concentrated sodium hydroxide to a pH of 8.5.
as §3
(§8) The inoculation with bacteria is accomplished by using the following procedure. Twenty-four hour-cultures of each of the bacteria are prepared by incubating the respective bacteria in tubes containing nutrient broth for 24 hours at 30° C. in a shaker. Dilutions of each of the 24 hour-cultures are made so that nine separate suspensions (one for each of the nine test bacteria) are made, each containing 10^8 colony forming units (CFU) per mL of suspension of a particular bacteria. Aliquots of 0.3 mL of each of the bacterial suspensions are used to fill the individual wells of Steer's Replicator. For each microbial suspension, 0.3 mL was used to fill three wells (i.e., three wells of 0.3 mL each) so that for the nine different bacteria, 27 wells are filled. The Steer's Replicator is then used to inoculate both the neutral and alkaline pH nutrient agar petri plates.
(§9) The inoculated petri plates are incubated at 30° C. for 48 hours and then read to determine if the test compound which is incorporated into the agar prevented growth of the respective bacteria.
as §5, §6
`Cc1cccc(-n2nnnc2SCSC#N)c1` [VI, 1-(3-Methylphenyl)-5-thiomethylthiocyanato-1H-tetrazole]: the MIC was < 10 µg/mL.
Consider `N#CSCSc1nnnn1C1CCCCC1` [X, 1-(Cyclohexyl)-5-thiomethylthiocyanato-1H-tetrazole], for which the MIC is < 10 µg/mL.

The same experiment, now with this note: nutrient agar pH 8.2, 30° C., 48 hours.
Take `Cc1cccc(-n2nnnc2SCSC#N)c1` [VI, 1-(3-Methylphenyl)-5-thiomethylthiocyanato-1H-tetrazole]: the MIC is 25 µg/mL (≈ 94.9 µM).
Still for that read-out and setting: with `N#CSCSc1nnnn1C1CCCCC1` [X, 1-(Cyclohexyl)-5-thiomethylthiocyanato-1H-tetrazole] the figure was 25 µg/mL (≈ 97.9 µM).

The next experiment deals with marine organisms. Put plainly: Marine antifouling activity, coated test panels exposed to marine environment. As to conditions: 6 weeks; bottom panel (black background); scale 10 (completely free of growth) to 0 (completely covered). The method, then:
Test panels are prepared from clear, rigid polyvinyl chloride film that is 0.381×10^-3 m thick and has one textured surface. The test panels are 0.1524 m by 0.1524 m squares that have 0.00635 m holes punched at corners on 0.127 m centers. A 0.102 square template, with a 0.067 m diameter hole at the center, is attached to the center of the textured surface of the test panels.
A candidate marine antifoulant compound (1.0 g) is stirred into a resinous latex binder (9.0 g). A portion of the compound/binder mixture (1.5 g) is added to the center of the test panel and uniformly spread over the circular area inside the template.
Water is added dropwise as needed to properly spread the compound/binder mixture. The template prevents the compound/binder mixture from spreading beyond the uncovered area. […] The template is then removed. The test panel is then allowed to dry for 8 to 12 hours at room temperature.
Two test panels are prepared for each candidate marine antifoulant compound. Two control test panels are also prepared by only treating with the resinous latex binder. One test panel of each candidate marine […] compound is attached over a white background to the topside of an exposure support apparatus. The second test panel is attached over a black background to the underside of the exposure support apparatus. The exposure support apparatus is placed horizontally 0.0254 m under a marine surface with the white background topside facing up.
After being removed from the exposure support apparatus, each test panel is inspected and rated for marine organism growth on both the treated and untreated areas of the test panel. The marine organisms present on the treated and untreated areas are noted. The presence of algae spores and bacterial slime are noted but not included in rating each test panel. The test panels are rated on a scale from 10 (representing completely free of marine organism growth) to 0 (representing completely covered with marine organism growth).
In addition, test panels were prepared using tributyl tin oxide, a known marine antifouling compound.
In the case of `Cc1cccc(-n2nnnc2SCSC#N)c1` [VI, 1-(3-Methylphenyl)-5-thiomethylthiocyanato-1H-tetrazole], the “Marine Antifouling Rating, 6 Week Test, Bottom Panel” value is 10.
For `N#CSCSc1nnnn1C1CCCCC1` [X, 1-(Cyclohexyl)-5-thiomethylthiocyanato-1H-tetrazole], the “Marine Antifouling Rating, 6 Week Test, Bottom Panel” value turned out to be 10.

The same experiment, now with this note: 6 weeks; top panel (white background); scale 10 (completely free of growth) to 0 (completely covered).
Regarding `Cc1cccc(-n2nnnc2SCSC#N)c1` [VI, 1-(3-Methylphenyl)-5-thiomethylthiocyanato-1H-tetrazole], the “Marine Antifouling Rating, 6 Week Test, Top Panel” value is 9.
Take `N#CSCSc1nnnn1C1CCCCC1` [X, 1-(Cyclohexyl)-5-thiomethylthiocyanato-1H-tetrazole]: the “Marine Antifouling Rating, 6 Week Test, Top Panel” value turned out to be 9.

The same experiment, now with this note: 15 weeks; bottom panel (black background); scale 10 (completely free of growth) to 0 (completely covered).
With `Cc1cccc(-n2nnnc2SCSC#N)c1` [VI, 1-(3-Methylphenyl)-5-thiomethylthiocyanato-1H-tetrazole], the “Marine Antifouling Rating, 15 Week Test, Bottom Panel” value came to 9.
Consider `N#CSCSc1nnnn1C1CCCCC1` [X, 1-(Cyclohexyl)-5-thiomethylthiocyanato-1H-tetrazole], for which the “Marine Antifouling Rating, 15 Week Test, Bottom Panel” value was 8.

The same experiment, now with this note: 15 weeks; top panel (white background); scale 10 (completely free of growth) to 0 (completely covered).
On to `Cc1cccc(-n2nnnc2SCSC#N)c1` [VI, 1-(3-Methylphenyl)-5-thiomethylthiocyanato-1H-tetrazole], for which the “Marine Antifouling Rating, 15 Week Test, Top Panel” value was 8.
The same measure, in the same setting: in the case of `N#CSCSc1nnnn1C1CCCCC1` [X, 1-(Cyclohexyl)-5-thiomethylthiocyanato-1H-tetrazole] it was 4.

The test system of a further experiment is Saccharomyces cerevisiae (Sc). The experiment is described as follows: Minimum inhibitory concentration (MIC), yeast/fungi in malt yeast agar. Type of experiment: cell-based, Saccharomyces cerevisiae ATCC 4105. Particulars: 30° C., 48 hours for yeast. The method, then:
as §1, §2, §3, §4, §5, §6
In the case of `Cc1cccc(-n2nnnc2SCSC#N)c1` [VI, 1-(3-Methylphenyl)-5-thiomethylthiocyanato-1H-tetrazole], the minimal inhibitory concentration (MIC) is < 1 µg/mL.
On the same count and under the same terms, in the case of `N#CSCSc1nnnn1C1CCCCC1` [X, 1-(Cyclohexyl)-5-thiomethylthiocyanato-1H-tetrazole] it was 5 µg/mL (≈ 19.6 µM).

The subject of a further experiment is Enterobacter aerogenes (Ea). Put plainly: Minimum inhibitory concentration (MIC), bacteria in nutrient agar. The class given is cell-based, Enterobacter aerogenes ATCC 13048. Particulars: Klebsiella aerogenes; nutrient agar pH 6.8, 30° C., 48 hours. The method, then: as §1, §7, §3, §8, §9, §5, §6
`Cc1cccc(-n2nnnc2SCSC#N)c1` [VI, 1-(3-Methylphenyl)-5-thiomethylthiocyanato-1H-tetrazole] registered an MIC of 500 µg/mL (≈ 1900 µM).
For the compound `N#CSCSc1nnnn1C1CCCCC1` [X, 1-(Cyclohexyl)-5-thiomethylthiocyanato-1H-tetrazole], 500 µg/mL (≈ 1960 µM) was the least that counted as inhibitory (MIC).

Still in this experiment, the particulars now being: Klebsiella aerogenes; nutrient agar pH 8.2, 30° C., 48 hours.
`Cc1cccc(-n2nnnc2SCSC#N)c1` [VI, 1-(3-Methylphenyl)-5-thiomethylthiocyanato-1H-tetrazole] had an MIC of 500 µg/mL (≈ 1900 µM).
Still for that read-out and setting: in the case of `N#CSCSc1nnnn1C1CCCCC1` [X, 1-(Cyclohexyl)-5-thiomethylthiocyanato-1H-tetrazole] it was 500 µg/mL (≈ 1960 µM).

In a further experiment the test system is Escherichia coli (Ec). The description is as above. The class given is cell-based, Escherichia coli ATCC 11229. As to conditions: nutrient agar pH 6.8, 30° C., 48 hours. The procedure:
as §1, §7, §3, §8, §9, §5, §6
The compound `Cc1cccc(-n2nnnc2SCSC#N)c1` [VI, 1-(3-Methylphenyl)-5-thiomethylthiocyanato-1H-tetrazole] displayed an MIC of 500 µg/mL (≈ 1900 µM).
Compound `N#CSCSc1nnnn1C1CCCCC1` [X, 1-(Cyclohexyl)-5-thiomethylthiocyanato-1H-tetrazole] displayed an MIC of 250 µg/mL (≈ 979 µM).

Staying with this experiment, now noted: nutrient agar pH 8.2, 30° C., 48 hours.
In turn, `Cc1cccc(-n2nnnc2SCSC#N)c1` [VI, 1-(3-Methylphenyl)-5-thiomethylthiocyanato-1H-tetrazole] returned an MIC of 500 µg/mL (≈ 1900 µM).
`N#CSCSc1nnnn1C1CCCCC1` [X, 1-(Cyclohexyl)-5-thiomethylthiocyanato-1H-tetrazole] had an MIC of 500 µg/mL (≈ 1960 µM).

The next experiment has as its system Penicillium chrysogenum (Pc). The experiment is described as follows: Minimum inhibitory concentration (MIC), yeast/fungi in malt yeast agar. Type of experiment: cell-based, Penicillium chrysogenum ATCC 9480. As to conditions: 30° C., 72 hours for fungi. The method, then: as §1, §2, §3, §4, §5, §6
On to `Cc1cccc(-n2nnnc2SCSC#N)c1` [VI, 1-(3-Methylphenyl)-5-thiomethylthiocyanato-1H-tetrazole], for which the MIC is < 1 µg/mL.
With `N#CSCSc1nnnn1C1CCCCC1` [X, 1-(Cyclohexyl)-5-thiomethylthiocyanato-1H-tetrazole], the MIC was < 1 µg/mL.

The next experiment relates to Fusarium oxysporum (Fo). Described as above. Type of experiment: cell-based, Fusarium oxysporum ATCC 48112. Particulars: 30° C., 72 hours for fungi. The procedure: as §1, §2, §3, §4, §5, §6
Turning to `Cc1cccc(-n2nnnc2SCSC#N)c1` [VI, 1-(3-Methylphenyl)-5-thiomethylthiocyanato-1H-tetrazole], the MIC was < 1 µg/mL.
For the compound `N#CSCSc1nnnn1C1CCCCC1` [X, 1-(Cyclohexyl)-5-thiomethylthiocyanato-1H-tetrazole], the lowest concentration to inhibit growth (MIC) was 5 µg/mL (≈ 19.6 µM).

Another experiment relates to Pseudomonas aeruginosa (PRD-10). Put plainly: Minimum inhibitory concentration (MIC), bacteria in nutrient agar. Type of experiment: cell-based, Pseudomonas aeruginosa ATCC 15442. Particulars: nutrient agar pH 6.8, 30° C., 48 hours. The procedure:
as §1, §7, §3, §8, §9, §5, §6
Compound `Cc1cccc(-n2nnnc2SCSC#N)c1` [VI, 1-(3-Methylphenyl)-5-thiomethylthiocyanato-1H-tetrazole] yielded an MIC of 500 µg/mL (≈ 1900 µM).
Regarding `N#CSCSc1nnnn1C1CCCCC1` [X, 1-(Cyclohexyl)-5-thiomethylthiocyanato-1H-tetrazole], the MIC is 500 µg/mL (≈ 1960 µM).

The experiment is the same for the next values; noted with them: nutrient agar pH 8.2, 30° C., 48 hours.
`Cc1cccc(-n2nnnc2SCSC#N)c1` [VI, 1-(3-Methylphenyl)-5-thiomethylthiocyanato-1H-tetrazole] came in with an MIC of 500 µg/mL (≈ 1900 µM).
`N#CSCSc1nnnn1C1CCCCC1` [X, 1-(Cyclohexyl)-5-thiomethylthiocyanato-1H-tetrazole] had an MIC of 500 µg/mL (≈ 1960 µM).
